Source: ChEMBL document CHEMBL1126383, “P-3A and ()-desacetamido P-3A: demonstration and Study of their effective functional cleavage of duplex DNA” (Bioorg Med Chem Lett, 1992)
Active and inactive are the calls of the source. The rule behind the calls is not given here.

Legend:
Type in all cases: functional
Nucleic Acid [1] = experiment: Relative efficiency of supercoiled phi X174 DNA cleavage was determined
Nucleic Acid [2] = experiment: DNA cleavage selectivity selected within singly 5' -end labeled w794 DNA was determined; N - None
Nucleic Acid [3] = experiment: Relative efficiency of supercoiled phi X174 DNA cleavage was determined; 0.33-0.2
Nucleic Acid [4] = experiment: Relative efficiency of supercoiled phi X174 DNA cleavage was determined; 4-10
Nucleic Acid [5] = experiment: Relative efficiency of supercoiled phi X174 DNA cleavage was determined; 1.25-2

In the case of `C[C@H](NC(=O)C(Cc1c[nH]cn1)NC(=O)c1cc(N)nc(C(CC(N)=O)NC[C@H](N)C(N)=O)n1)C(=O)O` (stereo partly specified), the Relative efficiency (Nucleic Acid [1]) is reported as 1 and the Selectivity (Nucleic Acid [2]) is reported as “inactive”.

In the case of `C[C@H](NC(=O)C(Cc1c[nH]cn1)NC(=O)c1cc(N)nc(CNC[C@H](N)C(N)=O)n1)C(=O)O` (stereo partly specified), the Relative efficiency (Nucleic Acid [3]) is reported as 0.2 and the Selectivity (Nucleic Acid [2]) is reported as “inactive”.

For `Cc1c(N)nc([C@H](CC(N)=O)NC[C@H](N)C(N)=O)nc1C(=O)N[C@H](C(=O)N[C@H](C)[C@@H](O)[C@H](C)C(=O)N[C@H](C(=O)NCCc1nc(-c2nc(C(=O)NCCC[S+](C)C)cs2)cs1)[C@@H](C)O)[C@@H](O[C@@H]1O[C@@H](CO)[C@@H](O)[C@H](O)[C@@H]1O[C@H]1O[C@H](CO)[C@@H](O)[C@H](OC(N)=O)[C@@H]1O)c1c[nH]cn1`, the Relative efficiency (Nucleic Acid [4]) was 4.

With `Cc1c(N)nc(C(CC(N)=O)NC[C@H](N)C(N)=O)nc1C(=O)NC(C(=O)NC(C)C(O)[C@H](C)C(=O)NC(C(=O)NCCc1nc(-c2nc(C(=O)NCCC[S+](C)C)cs2)cs1)C(C)O)C(O)c1c[nH]cn1` (stereo partly specified) the Relative efficiency (Nucleic Acid [5]) was 1.25.
